Experimental data: patent US9464082B2, “Aryl and arylalkyl substituted pyrazolyl and pyrimidinyl tricyclic enones as antioxidant inflammation modulators” (AbbVie Inc., priority 2014, dated 2016)

What follows are molecules tested on IFNγ-Induced NO Production (assay: Nitric Oxide Suppression Assay (Suppression of IFNγ-Induced NO Production)). Conditions: RAW264.7; RAW 264.7 mouse macrophage cells; 2 hour pre-treatment with compound (3 μM to 0.3 nM, 10 point curve); 20 ng/mL interferon gamma, ~18 hour; Griess detection; n=2-3 in duplicates.
Type: cell-based
How it was run: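 Mouse RAW 264.7 macrophages pre-treated 2 h at 37 °C with compound (3 μM to 0.3 nM, 10 points; DMSO ≤1%), then stimulated with 20 ng/mL interferon gamma for ~18 h. Supernatant nitrite measured by Griess reaction, absorbance 520–550 nm. IC50 from curve fit of signal normalised to IFNγ alone, mean n=2-3 in duplicate.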
Molecule `C[C@@H]1C(=O)C(C#N)=C[C@]2(c3cccc(C(N)=O)c3)c3ncncc3CC[C@@H]12` [Example 61, 3-[(6aS,7S,10aR)-9-cyano-7-methyl-8-oxo-6,6a,7,8-tetrahydrobenzo[h]quinazolin-10a(5H)-yl]benzamide] has an IC50 of 591 nM. For `COC(=O)c1cccc([C@]23C=C(C#N)C(=O)[C@@H](C)[C@@H]2CCc2c[nH]nc23)c1` [Example 62, methyl 3-[(5aS,6S,9aR)-8-cyano-6-methyl-7-oxo-2,4,5,5a,6,7-hexahydro-9aH-benzo[g]indazol-9a-yl]benzoate], the IC50 was 39.4 nM. Work on `COC(=O)c1ccc([C@]23C=C(C#N)C(=O)[C@@H](C)[C@@H]2CCc2c[nH]nc23)cc1` [Example 63, methyl 4-[(5aS,6S,9aR)-8-cyano-6-methyl-7-oxo-2,4,5,5a,6,7-hexahydro-9aH-benzo[g]indazol-9a-yl]benzoate] yielded an IC50 of 26.6 nM. With `COC(=O)c1ccc([C@]23C=C(C#N)C(=O)[C@@H](C)[C@@H]2CCc2cncnc23)cc1` [Example 64, methyl 4-[(6aS,7S,10aR)-9-cyano-7-methyl-8-oxo-6,6a,7,8-tetrahydrobenzo[h]quinazolin-10a(5H)-yl]benzoate] the IC50 was 11 nM. `C[C@@H]1C(=O)C(C#N)=C[C@]2(c3ccccc3)c3c(cnn3Cc3ccc(Br)cc3)CC[C@@H]12` [Example 65, (5aS,6S,9aR)-1-(4-bromobenzyl)-6-methyl-7-oxo-9a-phenyl-4,5,5a,6,7,9a-hexahydro-1H-benzo[g]indazole-8-carbonitrile] gave an IC50 of 109 nM. With `C[C@@H]1C(=O)C(C#N)=C[C@]2(c3ccc(C(=O)O)cc3)c3ncncc3CC[C@@H]12` [Example 66, 4-[(6aS,7S,10aR)-9-cyano-7-methyl-8-oxo-6,6a,7,8-tetrahydrobenzo[h]quinazolin-10a(5H)-yl]benzoic acid] the IC50 was 809 nM. `COc1ccc([C@]23C=C(C#N)C(=O)[C@@H](C)[C@@H]2CCc2c(-c4cncnc4)nc(C)nc23)cc1` [Example 67, (6aS,7S,10aR)-10a-(4-methoxyphenyl)-2,7-dimethyl-8-oxo-4-(pyrimidin-5-yl)-5,6,6a,7,8,10a-hexahydrobenzo[h]quinazoline-9-carbonitrile] showed an IC50 of 21.8 nM. In the case of `Cc1nc(-c2cncnc2)c2c(n1)[C@@]1(c3ccc(F)cc3)C=C(C#N)C(=O)[C@@H](C)[C@@H]1CC2` [Example 68, (6aS,7S,10aR)-10a-(4-fluorophenyl)-2,7-dimethyl-8-oxo-4-(pyrimidin-5-yl)-5,6,6a,7,8,10a-hexahydrobenzo[h]quinazoline-9-carbonitrile], the IC50 is reported as 33.6 nM. `Cc1nc(-c2cncnc2)c2c(n1)[C@@]1(c3cccc(F)c3)C=C(C#N)C(=O)[C@@H](C)[C@@H]1CC2` [Example 69, (6aS,7S,10aR)-10a-(3-fluorophenyl)-2,7-dimethyl-8-oxo-4-(pyrimidin-5-yl)-5,6,6a,7,8,10a-hexahydrobenzo[h]quinazoline-9-carbonitrile] was tested, and the IC50 was 35.8 nM. For `COc1ccc([C@]23C=C(C#N)C(=O)[C@@H](C)[C@@H]2CCc2cncnc23)cc1` [Example 70, (6aS,7S,10aR)-10a-(4-methoxyphenyl)-7-methyl-8-oxo-5,6,6a,7,8,10a-hexahydrobenzo[h]quinazoline-9-carbonitrile], the IC50 was 5.27 nM. `C[C@@H]1C(=O)C(C#N)=C[C@]2(c3cccc(C(=O)O)c3)c3n[nH]cc3CC[C@@H]12` [Example 71, 3-[(5aS,6S,9aR)-8-cyano-6-methyl-7-oxo-2,4,5,5a,6,7-hexahydro-9aH-benzo[g]indazol-9a-yl]benzoic acid] showed an IC50 of 1470 nM. `C[C@@H]1C(=O)C(C#N)=C[C@]2(c3ccc(O)cc3)c3n[nH]cc3CCC12` (stereo partly drawn) [Example 72, (6S,9aR)-9a-(4-hydroxyphenyl)-6-methyl-7-oxo-4,5,5a,6,7,9a-hexahydro-2H-benzo[g]indazole-8-carbonitrile] showed an IC50 of 37.9 nM. `C[C@@H]1C(=O)C(C#N)=C[C@]2(c3ccc(C(=O)N4CCCC4)cc3)c3ncncc3CC[C@@H]12` [Example 73, (6aS,7S,10aR)-7-methyl-8-oxo-10a-[4-(pyrrolidin-1-ylcarbonyl)phenyl]-5,6,6a,7,8,10a-hexahydrobenzo[h]quinazoline-9-carbonitrile] gave an IC50 of 152 nM. With `C[C@@H]1C(=O)C(C#N)=C[C@]2(c3ccccc3)c3nc(-c4c(F)cccc4F)ncc3CC[C@@H]12` [Example 74, (6aS,7S,10aR)-2-(2,6-difluorophenyl)-7-methyl-8-oxo-10a-phenyl-5,6,6a,7,8,10a-hexahydrobenzo[h]quinazoline-9-carbonitrile] the IC50 was 9.26 nM. With `COC(=O)c1ccc(-c2ncc3c(n2)[C@@]2(c4ccccc4)C=C(C#N)C(=O)[C@@H](C)[C@@H]2CC3)cc1` [Example 75, methyl 4-[(6aS,7S,10aR)-9-cyano-7-methyl-8-oxo-10a-phenyl-5,6,6a,7,8,10a-hexahydrobenzo[h]quinazolin-2-yl]benzoate] the IC50 was 12.7 nM. Work on `CC(=O)n1cc(-c2nc(C)nc3c2CC[C@H]2[C@H](C)C(=O)C(C#N)=C[C@]32c2ccccc2)cn1` [Example 76, (6aS,7S,10aR)-4-(1-acetyl-1H-pyrazol-4-yl)-2,7-dimethyl-8-oxo-10a-phenyl-5,6,6a,7,8,10a-hexahydrobenzo[h]quinazoline-9-carbonitrile] yielded an IC50 of 1.91 nM. In the case of `C[C@@H]1C(=O)C(C#N)=C[C@]2(c3ccccc3)c3nc(-c4ccc(C(=O)O)cc4)ncc3CC[C@@H]12` [Example 77, 4-[(6aS,7S,10aR)-9-cyano-7-methyl-8-oxo-10a-phenyl-5,6,6a,7,8,10a-hexahydrobenzo[h]quinazolin-2-yl]benzoic acid], the IC50 is reported as 15.4 nM. Molecule `C[C@@H]1C(=O)C(C#N)=C[C@]2(c3cccc(F)c3)c3n[nH]c(-c4cccc(CCCO)c4)c3CCC12` (stereo partly drawn) [Example 78, (6S,9aR)-9a-(3-fluorophenyl)-3-[3-(3-hydroxypropyl)phenyl]-6-methyl-7-oxo-4,5,5a,6,7,9a-hexahydro-2H-benzo[g]indazole-8-carbonitrile] has an IC50 of 21.8 nM. In the case of `COc1ccc([C@]23C=C(C#N)C(=O)[C@@H](C)[C@@H]2CCc2c(-c4ccc(-c5[nH]ncc5Br)cc4)nc(C)nc23)cc1` [Example 79, (6aS,7S,10aR)-4-[4-(4-bromo-1H-pyrazol-5-yl)phenyl]-10a-(4-methoxyphenyl)-2,7-dimethyl-8-oxo-5,6,6a,7,8,10a-hexahydrobenzo[h]quinazoline-9-carbonitrile], the IC50 is reported as 45.7 nM. `COc1ccc([C@]23C=C(C#N)C(=O)[C@@H](C)[C@@H]2CCc2c(-c4ccc(-c5ccn[nH]5)cc4)nc(C)nc23)cc1` [Example 80, (6aS,7S,10aR)-10a-(4-methoxyphenyl)-2,7-dimethyl-8-oxo-4-[4-(1H-pyrazol-5-yl)phenyl]-5,6,6a,7,8,10a-hexahydrobenzo[h]quinazoline-9-carbonitrile] was tested, and the IC50 was 7.43 nM. For `Cc1nc(-c2ccc(-c3[nH]ncc3Br)cc2)c2c(n1)[C@@]1(c3ccc(F)cc3)C=C(C#N)C(=O)[C@@H](C)[C@@H]1CC2` [Example 81, (6aS,7S,10aR)-4-[4-(4-bromo-1H-pyrazol-5-yl)phenyl]-10a-(4-fluorophenyl)-2,7-dimethyl-8-oxo-5,6,6a,7,8,10a-hexahydrobenzo[h]quinazoline-9-carbonitrile], the IC50 was 35 nM. Work on `C[C@@H]1C(=O)C(C#N)=C[C@]2(c3ccc(F)cc3)c3nn(C(=O)CN)cc3CC[C@@H]12` [Example 82, (5aS,6S,9aR)-9a-(4-fluorophenyl)-2-glycyl-6-methyl-7-oxo-4,5,5a,6,7,9a-hexahydro-2H-benzo[g]indazole-8-carbonitrile] yielded an IC50 of 31.3 nM. `Cc1nc(-c2ccc(-c3ccn[nH]3)cc2)c2c(n1)[C@@]1(c3ccc(F)cc3)C=C(C#N)C(=O)[C@@H](C)[C@@H]1CC2` [Example 83, (6aS,7S,10aR)-10a-(4-fluorophenyl)-2,7-dimethyl-8-oxo-4-[4-(1H-pyrazol-5-yl)phenyl]-5,6,6a,7,8,10a-hexahydrobenzo[h]quinazoline-9-carbonitrile] was tested, and the IC50 was 16.4 nM. `C[C@@H]1C(=O)C(C#N)=C[C@]2(c3ccccc3)c3nc(-c4cnccn4)ncc3CC[C@@H]12` [Example 84, (6aS,7S,10aR)-7-methyl-8-oxo-10a-phenyl-2-(pyrazin-2-yl)-5,6,6a,7,8,10a-hexahydrobenzo[h]quinazoline-9-carbonitrile] was tested, and the IC50 was 6.72 nM. In the case of `C[C@@H]1C(=O)C(C#N)=C[C@]2(c3ccccc3)c3nc(C(C)(C)C)ncc3CC[C@@H]12` [Example 85, (6aS,7S,10aR)-2-tert-butyl-7-methyl-8-oxo-10a-phenyl-5,6,6a,7,8,10a-hexahydrobenzo[h]quinazoline-9-carbonitrile], the IC50 is reported as 33.8 nM. `C[C@@H]1C(=O)C(C#N)=C[C@]2(c3ccccc3)c3n[nH]c(-c4cccnc4)c3CC[C@@H]12` [Example 86, (5aS,6S,9aR)-6-methyl-7-oxo-9a-phenyl-3-(pyridin-3-yl)-4,5,5a,6,7,9a-hexahydro-2H-benzo[g]indazole-8-carbonitrile] was tested, and the IC50 was 3.95 nM. `C[C@@H]1C(=O)C(C#N)=C[C@]2(c3ccccc3)c3n[nH]c(-c4cncnc4)c3CC[C@@H]12` [Example 87, (5aS,6S,9aR)-6-methyl-7-oxo-9a-phenyl-3-(pyrimidin-5-yl)-4,5,5a,6,7,9a-hexahydro-2H-benzo[g]indazole-8-carbonitrile] was tested, and the IC50 was 4.18 nM. Molecule `C[C@@H]1C(=O)C(C#N)=C[C@]2(c3ccccc3)c3n[nH]c(-c4cccc(O)c4)c3CC[C@@H]12` [Example 88, (5aS,6S,9aR)-3-(3-hydroxyphenyl)-6-methyl-7-oxo-9a-phenyl-4,5,5a,6,7,9a-hexahydro-2H-benzo[g]indazole-8-carbonitrile] has an IC50 of 20.1 nM. `C[C@@H]1C(=O)C(C#N)=C[C@]2(c3ccccc3)c3n[nH]c(-c4cnn(C)c4)c3CC[C@@H]12` [Example 89, (5aS,6S,9aR)-6-methyl-3-(1-methyl-1H-pyrazol-4-yl)-7-oxo-9a-phenyl-4,5,5a,6,7,9a-hexahydro-2H-benzo[g]indazole-8-carbonitrile] gave an IC50 of 8.18 nM.
